Assay results: patent US20220110902A1, “Methods of treating amyloid-beta peptide diseases” (Ecole Polytechnique Federale de Lausanne, priority 2016, published 2022)
Entries after “also recorded” stand apart in the source; their conditions may differ.

Experiments:
GMC101 worms = assay: Worm phenotypic assays in GMC101: mobility, paralysis and death score; assay type: in vivo, C. elegans; settings: for fitness/healthspan and lifespan (mobility, paralysis, death): GMC101, mobility from day 1 of adulthood, paralysis and death at day 8, dox 15 μg/mL, AZD 300 nM
Description: Doxycycline was obtained from Sigma-Aldrich and dissolved in water. For experiments, a final concentration of 15 μg/mL was used. Olaparib (AZD2281) was dissolved in DMSO to experimental concentrations of 300 nM. Nicotinamide Riboside triflate (NR) was custom synthesized by Novalix (www.novalix-pharma.com/) and dissolved in water, and used at a final concentration of 1 mM. Compounds were added just before pouring the plates. For phenotyping experiments, parental F0 L4 worms were allowed to reach adulthood and lay eggs on the treatment plates. The deriving F1 worms were therefore exposed to compounds during the full life from eggs until death. For RNA analysis experiments, synchronized L1 worms were exposed to the compounds until harvest. To ensure a permanent exposure to the compound, plates were changed twice a week.
Mobility: C. elegans movement analysis was performed as described, starting from day 1 of adulthood, using the Movement Tracker software. The experiments were repeated at least twice.
Paralysis and death score: 5 L4 worms per condition were allowed to reach adulthood and lay eggs on the treatment plates. 45 to 60 deriving F1 worms per condition were manually scored for paralysis after poking, as already described. Worms that were unable to respond to any, repeated stimulation, were scored as dead. Results are representative of the data obtained in at least three independent experiments.
During the assays, animals were exposed to Myriocin (dissolved in DMSO) from the egg stage on plates seeded with live HT115 E. coli bacteria. Control plates seeded with the same bacteria were prepared with the corresponding concentrations of DMSO. The day of the experiment (day 1 of adulthood, 3 days after hatching), the GMC101 population was shifted to 25° C. in order to induce the amyloid deposition in the body wall muscle. ˜1000 worms were used for western blotting assays.
C. elegans movement analysis was performed as described (Mouchiroud et al., 2016), using the Movement Tracker software. ˜50 adult worms were used per condition for movement assays.
To score for paralysis and death, 50 worms per condition were manually scored after poking as described (McCool et al., 2012; Florez-McClure et al., 2007). Worms that were unable to respond to repeated stimulation were scored as dead.
During the assays, animals were exposed to the compound UA from egg stage on plates seeded with live HT115 E. coli bacteria. Control plates seeded with the same bacteria were prepared with the corresponding concentrations of DMSO (0.1%). The day of the experiment (day 1 of adulthood, 3 days after hatching), the GMC101 population was shifted to 25° C. in order to induce the amyloid deposition in the body wall muscle. ˜50 adult worms were used per conditions.
C. elegans movement analysis was performed as described in (Mouchiroud et al., 2016), using the Movement Tracker software within a period of 4 days.

[1] = tested on: SH-SY5Y neuroblastoma cell line expressing the APP Swedish K670N/M671L double mutation (APPSwe); assay: Immunostaining of intracellular Aβ deposits in APPSwe SH-SY5Y cells; assay type: cell-based, human
Description: The SH-SY5Y neuroblastoma cell line expressing the APP Swedish K670N/M671L double mutation (APPSwe) was a kind gift of Prof. Cedazo-Minguez (Karolinska Institute, Sweden). Cells were grown in DMEM/F-12, supplemented with 10% fetal bovine serum (FBS, Gibco), GlutaMAX (100×, Gibco) and penicillin/streptomycin (1×, Gibco). Cells were selected in 4 μg/mL Geneticin® Selective Antibiotic (G418 Sulfate, Sigma) and grown for three generations before experiments with cells plated and passaged at 4×10^3 cells/ml and 60% confluence, respectively. Cells were cultured at 37° C. under a 5% CO2 atmosphere and tested for mycoplasma using Mycoprobe (#CUL001B, R&D systems) following the manufacturer's instructions. Cells were treated with 10 μg/mL dox, NR 1 or 3 mM, ISRIB 0.5 μM (Sigma), as indicated for 24 hours before cell harvesting or fixation. For the immunostaining, cells were fixed with 1× Formal-Fixx (Thermo Scientific) for 15 min. After 15 min permeabilization with 0.1% Triton X-100, cells were blocked in PBS supplemented with 5% fetal bovine serum for 1 hour and immunostained overnight, at 4° C., with the anti-β-Amyloid 1-42 (1:100, Millipore AB5078P). The secondary antibody was coupled to the Alexa-488 fluorochrome (Thermo Scientific), and nuclei were stained with DAPI (Invitrogen, D1306). After washing in PBS, cell slides were mounted with Dako mounting medium (Dako, S3023) and examined with a Zeiss LSM 700 confocal microscope (Carl Zeiss MicroImaging) equipped with a Plan-Apochromat 40×/1.3 NA oil immersion objective lens using a 488 nm laser. Laser power was set at the lowest intensity allowing clear visualization of the signal. Imaging settings were maintained with the same parameters for comparison between different experimental conditions.
The SH-SY5Y neuroblastoma cell line expresses the APP Swedish K670N/M671L double mutation (APPSwe) (Zheng et al., 2011) and accumulates intracellular Aβ amyloid aggregates. Cells were grown in DMEM/F-12, supplemented with 10% fetal bovine serum (FBS, Gibco), GlutaMAX (100×, Gibco) and penicillin/streptomycin (1×, Gibco). Cells were selected in 4 μg/mL Geneticin® Selective Antibiotic (G418 Sulfate, Sigma) and grown for three generations before experiments with cells plated and passaged at 4×10{right arrow over ( )}3 cells/ml and 60% confluence, respectively. Cells were cultured at 37° C. under a 5% CO2 atmosphere and tested for mycoplasma using Mycoprobe (#CUL001B, R&D systems), following the manufacturer's instructions. Myriocin was dissolved in DMSO.
Cells were treated with 10 uM Myriocin and Fumonisin B1 for 24 hours before harvesting or fixation (FIG. 3A). For immunostaining, cells were fixed with 1× Formal-Fixx (Thermo Scientific) for 15 min. […]

| Compound | fitness/healthspan and lifespan (mobility, paralysis, death) (GMC101 worms; NR 1 mM) | paralysis and death (survival) (GMC101 worms; GMC101, day 4 of adulthood, Myriocin 10 uM) | spontaneous movement (mobility) (GMC101 worms; GMC101, period of 4 days, Myriocin 10 uM) | intracellular Aβ deposits ([1]; 10 uM, 24 hours) | health- and life-span upon sir-2.1 RNAi (GMC101 worms; GMC101 fed with sir-2.1 RNAi, NR 1 mM) | dependence of motility and Aβ clearance benefits on atfs-1 (GMC101 worms; GMC101 upon atfs-1 RNAi feeding) | dependence of health-, lifespan and proteostasis benefits on dct-1 (GMC101 worms; GMC101 upon dct-1 RNAi feeding) | intracellular Aβ deposits (anti-β-Amyloid 1-42 immunodetection) ([1]; 24 h, dox 10 μg/mL, NR 3 mM) |
| --- | --- | --- | --- | --- | --- | --- | --- | --- |
| O=C(c1cc(Cc2n[nH]c(=O)c3ccccc23)ccc1F)N1CCN(C(=O)C2CC2)CC1 [AZD, Olaparib, reference compound] | improved healthspan and lifespan |  |  |  |  |  |  |  |
| CCCCCCC(=O)CCCCCC/C=C/C[C@@H](O)[C@H](O)[C@@](N)(CO)C(=O)O [Myriocin, (E,2S,3R,4R)-2-amino-3,4-dihydroxy-2-(hydroxymethyl)-14-oxoicos-6-enoic acid] |  | decreased both paralysis and death; also recorded: improves the paralysis score and survival | increased the mobility; also recorded: increase in spontaneous movement | significantly reduced; also recorded: markedly reduced |  |  |  |  |
| NC(=O)c1ccc[n+]([C@@H]2O[C@H](CO)[C@@H](O)[C@H]2O)c1 [NR, Nicotinamide Riboside triflate] | improved healthspan and lifespan |  |  |  | still significantly rescued health- and life-span | required | required | remarkable reduction |
